# Experimental data published in patent publication US20150094354A1, “METHOD FOR TREATING CELL PROLIFERATIVE DISORDER BY INHIBITING C1GALT1 EXPRESSION” (National Taiwan University, priority 2013, published 2015).
# Columns and labels:
# Format in all cases: cell-based, human
# [1] = system: O-glycans on glycoproteins; assay: Western blotting with biotinylated VVA of glycoproteins in hepatocellular carcinoma cells
# Description: (§1) Vicia villosa agglutinin (VVA)- and peanut agglutinin (PNA) lectin-conjugated agarose beads, fluorescein isothiocyanate (FITC)-, and biotinylated VVA were purchased from Vector Laboratories. Recombinant EGF, HGF, IGF-I, and protein deglycosylation kits were purchased from Sigma. Protein deglycosylation is carried out using an Enzymatic Protein Deglycosylation Kit (Sigma). Briefly, cell lysates are treated with neuraminidase or PNGase F at 37° C. for 1 hour. For lectin blotting, […] of cell lysate is separated by an 8% SDS-PAGE, transferred to polyvinylidene difluoride membrane (Millipore), and blotted with biotinylated VVA (1:10,000). For lectin pull-down assay, cell lysates (0.3 mg) are incubated with or without deglycosylation enzymes and then applied to VVA- or PNA-conjugated agarose beads at 4° C. for 16 hours. The pulled down proteins are analyzed by Western blotting.
# HA22T and PLC5 cells express high levels of C1GALT1, while Sk-Hep1 and HCC36 cells express low levels of C1GALT1, as shown in FIG. 6B. […] Compared with pcDNA3.1 empty plasmid (mock), overexpression of C1GALT1 in Sk-Hep1 and HCC36 cells transfected with C1GALT1/pcDNA3.1 plasmid (C1GALT1) is shown in FIG. 7B Immunofluorescence microscopy further confirmed the knockdown and overexpression of C1GALT1 in hepatocellular carcinoma cells and its subcellular localization in the Golgi apparatus (not shown). […] Proteins with evident changes in VVA binding are indicated by arrows. p140 changes in all tested cell lines are indicated by red arrows.
# [2] = system: MET; assay: VVA lectin pull-down of MET
# Description: as §1
# To investigate whether C1GALT1 can modify O-glycans on MET, VVA binding to MET was analyzed in hepatocellular carcinoma cells with C1GALT1 knockdown or overexpression. […] Cell lysates were treated with (+) or without (−) neuraminidase and then pulled down by VVA agarose beads. The pulled down glycoproteins were immunoblotted (IB) with anti-MET antibody. These findings indicate that C1GALT1 can modify O-glycans on MET in hepatocellular carcinoma cells. […]
# [3] = system: MET; assay: HGF-induced dimerization of MET (BS3 cross-linking, Western blotting); conditions: 25 ng/mL HGF
# Description: MET is also called hepatocyte growth factor receptor (HGFR). The MET gene is an important protooncogene in a variety of human cancers. To analyze dimerization of MET, hepatocellular carcinoma cells are incubated with or without 25 ng/mL of human HGF in DMEM on ice for 5 minutes. Cross-linker Bis(sulfosuccinimidyl) suberate (BS3, 0.25 mmol/L, Thermo Scientific) is added to cells and reacted at 37° C. for 5 minutes. Cells are then transferred on ice for 10 minutes. Reactions are blocked by adding 50 mmol/L of Tris-HCl (pH 7.4). Cell lysates are separated by 6% SDS-PAGE and immunoblotted with anti-MET antibody.
# Because HGF-induced dimerization of MET is an initial and crucial step for the activation of MET signaling, whether C1GALT1 could affect MET dimerization was analyzed. FIGS. 19A-19B are autoradiograms illustrating the effects of C1GALT1 on dimerization of MET in hepatocellular carcinoma cells in accordance with an embodiment of the present invention. Hepatocellular carcinoma cells were starved for 5 hours and then treated with (+) or without (−) 25 ng/mL of HGF. Cell lysates were cross-linked by BS3 and then analyzed by Western blotting with anti-MET antibody. The arrows indicate the dimer (D) of MET, and the arrowheads indicate the monomer (M). Markers of molecular weight are shown on the left. GAPDH is an internal control.
# [4] = system: HGF/MET signaling pathway; assay: HGF-induced signaling by Western blotting
# Description: Human liver cancer cell lines, Huh7, PLC5, Sk-Hep1, and HepG2, are purchased from Bioresource Collection and Research Center in the year 2008. HA22T, SNU387, and HCC36 cells are kindly provided by Prof. Shiou-Hwei Yeh (National Taiwan University) in the year 2010. All cell lines are authenticated by the provider based on morphology, antigen expression, growth, DNA profile, and cytogenetics. Cells are cultured in Dulbecco's Modified Eagle Medium (DMEM) containing 10% FBS in 5% CO2 at 37° C. To analyze growth factor-induced cell signaling, cells are starved in serum-free DMEM for 5 hours and then treated with 25 ng/mL of hepatocyte growth factor (HGF) or insulin-like growth factor (IGF) at 37° C. for 30 minutes.
# Equal amounts of protein samples are mixed with 5× sample buffer and boiled for 5 minutes, separated on SDS-polyacrylamide gels, and then transferred to PVDF membrane. The membranes are blocked in 5% BSA for 1 hour at room temperature, and incubated with primary antibodies overnight at 4° C. Anti-phosphotyrosine (4G10) antibody (Millipore, Billerica, Mass.), antibodies against C1GALT1, GAPDH, IGF-IR, MET pY 1234/5, IGF-IR pY1135/1136, p-AKT, p-ERK1/2, and ERK1/2 antibody (BD Pharmingen, San Jose, Calif.) are used. The blots are then incubated with secondary antibody conjugated with horseradish peroxidase and immunoreacted bands are detected by ECL reagents and exposed on x-ray film.
# FIGS. 13A-13B are autoradiograms illustrating the effects of C1GALT1 on the HGF-induced signaling and IGF-induced signaling in hepatocellular carcinoma cells in accordance with an embodiment of the present invention. The role of C1GALT1 in glycosylation and activation of MET in hepatocellular carcinoma cells was investigated. HA22T, PLC5, Sk-Hep1, and HCC36 cells were starved for 5 hours and then treated with (+)/without (−) HGF (25 ng/mL) or IGF (25 ng/mL) for 30 minutes. Cell lysates ([…]) were analyzed by Western blotting with various antibodies, as indicated. […] In contrast, overexpression of C1GALT1 enhanced HGF-induced activation of MET and increased p-AKT levels in Sk-Hep1 and HCC36 cells, as shown in FIG. 13B.
substance,measurement,setting,value
"C1GALT1 si-1: siRNA oligonucleotide against C1GALT1, presumably SEQ ID NO: 1, UUAGUAUACGUUCAGGUAAGGUAGG (chemistry not given here)",binding of VVA to glycoproteins,[1]; HA22T cells,enhanced
same,binding of VVA to glycoproteins,[1]; PLC5 cells,enhanced
same,VVA binding to MET,[2]; HA22T cells,increased
same,VVA binding to MET,[2]; PLC5 cells,increased
same,HGF-induced dimerization of MET,[3]; HA22T cells,suppressed
same,HGF-induced dimerization of MET,[3]; PLC5 cells,suppressed
same,HGF-induced phosphorylation of MET at Y1234/5,"[4]; HA22T, HGF 25 ng/mL 30 minutes",inhibited
same,phosphorylation of AKT,"[4]; HA22T, HGF 25 ng/mL 30 minutes",suppressed
same,HGF-induced phosphorylation of MET at Y1234/5,"[4]; PLC5, HGF 25 ng/mL 30 minutes",inhibited
same,phosphorylation of AKT,"[4]; PLC5, HGF 25 ng/mL 30 minutes",suppressed
"C1GALT1 si-2: siRNA oligonucleotide against C1GALT1, presumably SEQ ID NO: 2, UUAUGUUGGCUAGAAUCUGCAUUGA (chemistry not given here)",binding of VVA to glycoproteins,[1]; HA22T cells,enhanced
same,binding of VVA to glycoproteins,[1]; PLC5 cells,enhanced
same,HGF-induced phosphorylation of MET at Y1234/5,"[4]; HA22T, HGF 25 ng/mL 30 minutes",inhibited
same,phosphorylation of AKT,"[4]; HA22T, HGF 25 ng/mL 30 minutes",suppressed
same,HGF-induced phosphorylation of MET at Y1234/5,"[4]; PLC5, HGF 25 ng/mL 30 minutes",inhibited
same,phosphorylation of AKT,"[4]; PLC5, HGF 25 ng/mL 30 minutes",suppressed
